This note sets out measurements from US8465983B1, “Detection and delivery systems utilizing supported lipid bilayers” (priority 2005, dated 2013).

The subject of test [1] is EPC lipid bilayer on porous silica beads. Description: Suspension study: disruption of EPC bilayers on fluorescein-containing porous silica beads, release of dye into supernatant. The test is classed as biochemical. The protocol:
Lipid coatings on beads were disrupted using 10% TRITON X-100 detergent. Each sample in micro-centrifuge tubes contained 5 mg of lipid bilayer coated, fluorescein entrapped beads in 200 μL of Tris buffer. Samples were centrifuged and 100 μL aliquots of supernatant were mixed with either 100 μL of Tris buffer or 100 μL of 10% TRITON X-100 detergent in separate centrifuge tubes. The fluorescence intensity of each mixture was immediately (time=0) recorded. Each mixture was mixed with its respective bead sample in centrifuge tube and incubated at 25° C. in the dark. After 30 min, samples were centrifuged and fluorescent intensity of the supernatants was measured. Beads were resuspended in their respective supernatants. Fluorescence intensity was again measured at 90 and 150 min.
Experimental procedures were similar to the TRITON X-100 detergent based analysis. For experiments with α-toxin, three different toxin concentrations: 15, 45 and 250 μg/mL were used at 37° C. and 25° C. Beads coated with EPC were used. In the experiments with melittin, 220 μM melittin was used with beads coated with either 100% EPC, 10:90 (molar ratio) mixture of DMPG and EPC or an 80:20 mixture of DMPG and DMPC. All melittin experiments were conducted at 25° C.
Previous suspension studies on disruption of lipid bilayers have been performed with small unilamellar vesicles where disruption of the lipid bilayer membranes was detected by monitoring the unquenching of a highly concentrated, encapsulated dye. In the present work disruption was monitored via release of fluorescein dye from porous beads, by measuring the increase in fluorescence intensity of the supernatant at 520 nm. Beads were first suspended in Tris buffer containing the disruptor. After selected time periods, beads were sedimented by centrifuging and a portion of the supernatant was taken for the measurement. The measured portion was added back to the bead sample to permit continuous monitoring. The scattering effect that was present in vesicle based studies was minimized by measuring only the supernatant after centrifugation of the beads.

Test [2] deals with lipid membranes on porous silica beads packed in microcolumn. Description: Microfluidic study: release of dye from a bead packed microcolumn after TRITON X-100 injection. The test is classed as biochemical. The following applies: 10 μL of 10% TRITON X-100 injected, 5 min no flow. The protocol: To create a packed microcolumn of lipid coated beads containing fluorescein, 2 μL of silica bead (diameter=20 μm) containing suspension (0.05 mg/μL) was injected into a microfluidic channel by applying vacuum at the outlet port of the microchannel, followed by the injection of 10 μL of fluorescein-entrapped bead (diameter=10 μm) containing suspension (0.05 mg/μL). The bead packed microchannel was mounted onto a vertical translational stage located in the sample holder space of the fluorimeter. Just below the bead segment, the microchannel was irradiated with an Argon ion laser (λ=488 nm, 8-10 mW) excitation. The inlet of the column was connected to a buffer reservoir while the outlet was connected to a vacuum source. As the fluorescence intensity at 520 nm was monitored, several microliters of Tris buffer was passed through the microchannel before the injection of TRITON X-100 detergent. […]
The packed segment was about 2 mm long. The disruption of the membranes on porous silica beads (containing fluorescein dye) by TRITON X-100 detergent was detected by monitoring the release of the dye from the beads, at a point just below the bead segment as indicated in FIG. 7B. […] The microcolumn was irradiated at 488 nm and fluorescence intensity was monitored at 520 nm. […]

TRITON X-100: the “increase in fluorescence intensity of the supernatant” value in test [1] (10% TRITON X-100, first 30 min, 25° C.) was “more than 70 fold”. For the same substance, in test [1] (TRITON X-100 added after 150 min exposure to α-toxin), the “increase in fluorescence intensity (total disruption of bilayers)” value is on record as 50 fold. The “initial signal (1st peak) less than that observed in suspension studies” value in test [2] is about 80%.
